Source: patent US8372834B2, “Compositions and methods for delivery of anti-cancer agents” (University of Wollongong, priority 2007, dated 2013)

Tests used:
COLO-201 = assay: In vitro cytotoxicity, MTS cell proliferation assay; format: cell-based; conditions: COLO-201 cells
Protocol: (§1) After 72 h, cell proliferation was analysed by the MTS assay and normalised to saline control treatments (100% proliferation). ● 5-FU, ▪ 5-FU:FA, ▴ FD45c, ♦ FD50-7Sc, ? FD100HPc. Dashed lines represent the IC50 for each treatment (GraphPad). Values shown are mean±SD (n=4, except for HCT-116 FD50-7Sc and MDA-MB-231 FD100HPc where n=3)
(§2) In vitro cytotoxicity assays were carried out on 5 different carcinoma cell lines (MDA-MB-231, HCT-116, COLO-201, PC-3 and PC-14) using 3 different compositions of the invention (FD45c, FD50-7Sc and FD100HPc). MDA-MB-231 is a breast cancer cell line, HCT-116 and COLO-201 are colon cancer cell lines, PC-3 is a prostate cancer cell line and PC-14 is a non-small cell lung cancer cell line.
(§3) The levels of 5-FU and FA remained constant in each composition. For comparison, assays were also performed using a combination of 5-FU and FA (5-FU:FA), and also 5-FU only. A summary of IC50 values for all cell lines is presented in Table 1 below, and representative dose-response curves used to generate these IC50 values are presented in FIG. 3.

HCT-116 = assay: as above; format: cell-based; conditions: Homo sapiens, HCT-116 cells, 72 h, mean IC50 ± SD, at least 3 independent experiments, read-out: IC50 (μM 5-FU)
Protocol: as §1, §2, §3

MDA-MB-231 = assay: as above; format: cell-based; conditions: Homo sapiens, MDA-MB-231 cells, 72 h, mean IC50 ± SD, at least 3 independent experiments, read-out: IC50 (μM 5-FU)
Protocol: as §1, §2, §3

PC-14 = assay: as above; format: cell-based; conditions: PC-14 cells
Protocol: as §1, §2, §3

PC-3 = assay: as above; format: cell-based; conditions: Homo sapiens, PC-3 cells, 72 h, mean IC50 ± SD, at least 3 independent experiments, read-out: IC50 (μM 5-FU)
Protocol: as §1, §2, §3

[1] = Preliminary stability study of compositions; format: physicochemical; conditions: three weeks, room temperature, protected from light
Protocol: A preliminary assessment of the stability of the compositions was carried out over a period of three weeks. Test samples were manufactured using the FD2 method described above and stored at room temperature. 5-FU is known to be light sensitive and therefore the samples were protected from exposure to light. The samples were monitored at set time intervals for signs of decomposition using a solution of the equivalent concentration of 5-FU in saline (0.9%) as a control. The methods of monitoring the solutions were physical appearance (solid formation etc.), pH and UV-VIS absorbance spectroscopy (266 nm). The 5-FU solution was warmed and sonicated to dissolve any solid 5-FU that had precipitated before pH and absorbance readings.

[2] = Homo sapiens, 72 h, MTS assay, mean IC50 ± SD, at least 3 independent experiments, read-out: IC50 (μM 5-FU)

change in pH over time [1]: No significant change
change in A266 over time (UV-VIS absorbance, 266 nm) ([1]; serial dilution): No overall trend of change
Structure (SMILES): O=c1[nH]cc(F)c(=O)[nH]1 [Composition 5-FU, 5-fluorouracil]
effectiveness compared to 5-FU:FA (COLO-201; P=0.0084): significantly less effective than 5-FU:FA
IC50 (COLO-201; [2]): 39.3 ± 13.9 µM
IC50 (HCT-116): 4 ± 1.3 µM
IC50 (MDA-MB-231): 9.1 ± 1.4 µM
IC50 (PC-14; [2]): 33.4 ± 12.2 µM
effectiveness compared to 5-FU:FA (PC-14; P=0.0084): significantly less effective than 5-FU:FA
IC50 (PC-3): 1.4 ± 0.8 µM
